Source: US9102648B1, “Bioavailable diacylhydrazine ligands for modulating the expression of exogenous genes via an ecdysone receptor complex” (Intrexon Corporation, priority 2003, dated 2015)
Where two headings read alike, the source gives them in different places.

What was measured:
[1] = target: GAL4 DBD (1-147)-CfEcR(DEF)/VP16AD-βRXREF-LmUSPEF (Choristoneura fumiferana, UniProt O77240); assay: cell-based; details: for 27-63 assay Rel Max FI: maximum fold induction at any concentration relative to that of GS-E ligand, CHO 27-63 cells; for fold induction at 3.3 µM: read-out: Fold Induction, 27-63 Assay, 3.3 uM; for fold induction at 33 µM: read-out: Fold Induction, 27-63 Assay, 33 uM; for Fold Induction, 27-63 Assay, 3.3 uM: 3.3 uM ligand; for Fold Induction, 27-63 Assay, 3.3 uM / Fold Induction, 27-63 Assay, 33 uM: RLU ligand treated / RLU DMSO treated cells; for Fold Induction, 27-63 Assay, 33 uM: 33 uM ligand
[2] = Determination of LC Log P (experimental); type: physicochemical; details: for logP: diacylhydrazine log P standards (log P known experimentally)
Experimental: Liquid chromatography retention times (RT) are measured for each substance using the conditions described below. A linear equation is derived relating RT to log P is developed from the data for the log P standards. The log P for the test compound is calculated from the log P/retention time equation.

[3] = tested on: mutated ecdysone receptor-based gene switch; assay: In vivo SEAP induction, ligand by IP injection; set-up: species or system C57BL/6 mouse; details: for Secreted Alkaline Phosphatase (percentage of GS ™-E ligand induction) Day 2 / Secreted Alkaline Phosphatase (percentage of GS ™-E ligand induction) Day 3 / Secreted Alkaline Phosphatase (percentage of GS ™-E ligand induction) Day 11: mouse serum; for Secreted Alkaline Phosphatase (percentage of GS ™-E ligand induction) Day 2: IP 2.6 μmol ligand 3 days after electroporation, day 2 after ligand; for Secreted Alkaline Phosphatase (percentage of GS ™-E ligand induction) Day 3 / Secreted Alkaline Phosphatase (percentage of GS ™-E ligand induction) Day 11: IP 2.6 μmol ligand; for Secreted Alkaline Phosphatase (percentage of GS ™-E ligand induction) Day 3: day 3 after ligand; for Secreted Alkaline Phosphatase Day 2 / Secreted Alkaline Phosphatase Day 3 / Secreted Alkaline Phosphatase Day 7: IP 26 nmol ligand; for Secreted Alkaline Phosphatase (percentage of GS ™-E ligand induction) Day 11: day 11 after ligand
Experimental: Applicants' ligands are useful in various applications including gene therapy, expression of proteins of interest in host cells, production of transgenic organisms, and cell-based assays. In vivo induction of a reporter enzyme with various ligands of the present invention was evaluated in a C57BL/6 mouse model system containing a gene switch.
Each element of the gene switch was on a separate plasmid. Receptor expression was under the control of a CMV promoter (SEQ ID NO: 15). Induction was evaluated by the amount of reporter protein expressed in the presence of ligand.
SEAP expression in serum of mice was evaluated after electroporation of the gene switch into mouse quadriceps. Mice were anesthetized with 2 μL/g of a mixture of ketamine (100 mg/mL) and xylazine (20 mg/mL). Animals were then shaved, DNA vectors injected into the muscle in a volume of 2×50 μL polyglutamic acid (12 mg/mL water), electrode conductivity gel applied, and an electrode caliber (1 cm×1 cm; model 384) was placed on hind leg. The muscle was electroporated with 200 V/cm, 8 times, for 20 msec/pulse, at 1 sec time intervals. The transverse electrical field direction was reversed after the animals received half of the pulses. Electroporation was performed with an ECM 830 electroporator from BTX Molecular Delivery Systems.
In some experiments mice received an intraperitoneal injection (IP) of 2.6 μmol of ligand in 50 μL of DMSO 3 days after electroporation of the gene switch. In other experiments the concentration of ligand was decrease to 26 nmol/50 μL of DMSO/mouse. SEAP expression was evaluated 2-11 days after ligand administration. In other experiments ligand was administered in rodent chow. The chow was prepared by dissolving 2 g of ligand in 20 mL of acetone and adding it to 1 kg of LabDiet 5010 autoclavable chow from Purina Mills. This was thoroughly mixed in a Hobart mixer and then mixed for an additional 15 min in a Cross Blend mixer. Animals received chow ad libitum for 1, 2, or 3 days. All values are the average from four animals. Background SEAP in sera from animals treated with vector alone without ligand addition was 0-11 ng/mL serum.
Mouse serum was obtained by centrifugation of blood acquired by retroorbital bleeding with a small glass capillary tube. SEAP quantification was determined using a Clontech Great Escape chemiluminescence kit and by comparison with the Clontech SEAP standard.
Table 9: In vivo evaluation of ligand-mediated induction of a mutated ecdysone receptor-based gene switch. SEAP expression in serum of mice was evaluated after electroporation of the gene expression cassettes into mouse quadriceps. Mice received an IP injection of 2.6 μmol of ligand 3 days after electroporation. SEAP expression was evaluated 2-11 days after ligand administration. Each dose group was composed of four animals. Percentage of GS™-E ligand induction was determined by averaging SEAP expression from four animals divided by the average SEAP expression induced with GS™-E ligand and then multiplying by 100.
Table 10: Induction of gene switch expression with low concentrations of ligand. SEAP expression in serum of mice was evaluated after electroporation of the gene expression cassettes into mouse quadriceps. Mice received an IP injection of 26 nmol of ligand or 130 nmol GS™-E ligand 3 days after electroporation. SEAP expression was evaluated 2-7 days after ligand administration. Values are the average from 4 animals.

[4] = read-out: 27-63 assay EC50, CHO 27-63 stable cell line, luciferase reporter, average of two wells

Compound	EC50 [1] [nM]	27-63 assay Rel Max FI [1]	fold induction at 3.3 µM [1]	fold induction at 33 µM [1]	logP [2]	Secreted Alkaline Phosphatase (percentage of GS ™-E ligand induction) Day 2 [3]	Secreted Alkaline Phosphatase (percentage of GS ™-E ligand induction) Day 3 [3]	LC LogP (exp) ([2]; from LC retention time against log P standards)	Secreted Alkaline Phosphatase Day 2 [3]	Secreted Alkaline Phosphatase Day 3 [3]	Secreted Alkaline Phosphatase Day 7 [3] [ng/ml mouse sera]	Secreted Alkaline Phosphatase (percentage of GS ™-E ligand induction) Day 11 [3]	Fold Induction, 27-63 Assay, 3.3 uM ([1]; average of two wells)	Fold Induction, 27-63 Assay, 33 uM ([1]; average of two wells)	EC50 [1, 4] [nM]
CC(C)(C)N(NC(=O)c1ccc(Cl)cc1)C(=O)c1ccccc1 [RG-100864]	17300	0.716	1	1180	3.2	–	–	–	–	–	–	–	–	–	–
COc1cccc(C(=O)NN(C(=O)c2cc(C)cc(C)c2)C(C)(C)C)c1C [RG-102398]	325	1.017	2880	3180	3.7	–	–	–	–	–	–	–	–	–	–
CCc1c(OC)cccc1C(=O)NN(C(=O)c1cc(C)cc(C=NNC(=O)C(N)=O)c1)C(C)(C)C [RG-115613, oxamic hydrazone of N-(3-formyl-5-methyl-benzoyl)-N-tert-butyl-N′-(2-ethyl-3-methoxy-benzoyl) hydrazide]	–	–	–	–	–	2 percentage of GS ™-E ligand induction	1 percentage of GS ™-E ligand induction	2.8	–	–	–	–	–	–	–
CCC(N(NC(=O)c1cccc(OC)c1C)C(=O)c1cc(C)cc(C)c1)C(C)(C)C (stereo not drawn) [RG-115819, 3,5-dimethyl-benzoic acid N-(1-ethyl-2,2-dimethyl-propyl)-N′-(3-methoxy-2-methyl-benzoyl)-hydrazide]	25	1.045	1970	2370	–	172 percentage of GS ™-E ligand induction	215 percentage of GS ™-E ligand induction	–	5,984 ng/ml mouse sera	4,096 ng/ml mouse sera	453	3,008 percentage of GS ™-E ligand induction	–	–	–
CCC(N(NC(=O)c1cccc(OC)c1C)C(=O)c1cc(OC)c(C)c(OC)c1)C(C)(C)C (stereo not drawn) [RG-115820, 3,5-dimethoxy-4-methyl-benzoic acid N-(1-ethyl-2,2-dimethyl-propyl)-N′-(3-methoxy-2-methyl-benzoyl)-hydrazide]	193	1.270	2860	1970	–	82 percentage of GS ™-E ligand induction	63 percentage of GS ™-E ligand induction	–	–	–	–	399 percentage of GS ™-E ligand induction	–	–	–
CCCC(N(NC(=O)c1cccc(OC)c1C)C(=O)c1cc(C)cc(C)c1)C(C)(C)C (stereo not drawn) [RG-115823]	–	1.069	–	–	–	129 percentage of GS ™-E ligand induction	183 percentage of GS ™-E ligand induction	–	3,788 ng/ml mouse sera	2,705 ng/ml mouse sera	373	2,652 percentage of GS ™-E ligand induction	2093	1025	11
CCCC(N(NC(=O)c1cccc(OC)c1C)C(=O)c1cc(OC)c(C)c(OC)c1)C(C)(C)C (stereo not drawn) [RG-115824]	–	1.218	–	–	–	102 percentage of GS ™-E ligand induction	101 percentage of GS ™-E ligand induction	–	–	–	–	415 percentage of GS ™-E ligand induction	2675	948	36
CCCC(N(NC(=O)c1cccc(OC)c1CC)C(=O)c1cc(OC)c(C)c(OC)c1)C(C)(C)C (stereo not drawn) [RG-115829, 3,5-Dimethoxy-4-methyl-benzoic acid N-(1-tert-butyl-butyl)-N′-(2-ethyl-3-methoxy-benzoyl)-hydrazide]	35	1.264	2600	45	–	72 percentage of GS ™-E ligand induction	83 percentage of GS ™-E ligand induction	–	–	–	–	687 percentage of GS ™-E ligand induction	–	–	–
CCCC(N(NC(=O)c1cccc(OC)c1CC)C(=O)c1cc(C)cc(C)c1)C(C)(C)C (stereo not drawn) [RG-115830]	–	1.049	–	–	–	120 percentage of GS ™-E ligand induction	158 percentage of GS ™-E ligand induction	–	6,835 ng/ml mouse sera	5,339 ng/ml mouse sera	590	3,558 percentage of GS ™-E ligand induction	2287	353	36
CCc1c(OC)cccc1C(=O)NN(C(=O)c1cc(OC)c(C)c(OC)c1)C(CC)C(C)(C)C (stereo not drawn) [RG-115831]	–	1.366	–	–	–	118 percentage of GS ™-E ligand induction	121 percentage of GS ™-E ligand induction	–	–	–	–	105 percentage of GS ™-E ligand induction	2063	1435	96
CCc1c(OC)cccc1C(=O)NN(C(=O)c1cc(C)cc(C)c1)C(CC)C(C)(C)C (stereo not drawn) [RG-115832]	–	1.075	–	–	–	147 percentage of GS ™-E ligand induction	189 percentage of GS ™-E ligand induction	–	2,349 ng/ml mouse sera	1,807 ng/ml mouse sera	149	4,183 percentage of GS ™-E ligand induction	2063	1435	35
